Patent publication US20230027985A1, “SUBSTITUTED HYDANTOINAMIDES AS ADAMTS7 ANTAGONISTS” (Bayer Aktiengesellschaft, priority 2019, published 2023)

What was measured:
[1] = molecular target: T1, Purified recombinant ADAMTS-7 (rat prodomain/human catalytic domain, SEQ ID No. 01 or 02) (Homo sapiens, UniProt Q9UKP4); experiment: Assay for ADAMTS-7 enzymatic activity (FRET substrate cleavage); format: biochemical; settings: FRET substrate SEQ ID No. 11, 120 min at 32° C.; read-out: ADAMTS7-IC50
T1 construct: rat ADAMTS-7 signal peptide + prodomain (rat 1-217, Q1EHB3) (N); 2xStrep tag (C); 6xHis tag (C); made in house; host or cells: Expi293 cells
T1 sequence (Q9UKP4 237-537): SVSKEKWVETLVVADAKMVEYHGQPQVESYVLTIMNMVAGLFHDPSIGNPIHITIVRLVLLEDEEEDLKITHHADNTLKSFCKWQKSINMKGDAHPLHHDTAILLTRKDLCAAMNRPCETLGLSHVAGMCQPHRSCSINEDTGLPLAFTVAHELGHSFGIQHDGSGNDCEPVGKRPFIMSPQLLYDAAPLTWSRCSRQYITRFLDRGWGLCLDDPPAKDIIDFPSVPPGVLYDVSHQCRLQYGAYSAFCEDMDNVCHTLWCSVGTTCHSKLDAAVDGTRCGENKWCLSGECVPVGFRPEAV
Procedure, shortened: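 IC50 values were fitted from percent inhibition across test-compound concentrations. Fluorescence gain (ex 485, em 520 nm) reports cleavage of a thrombospondin-1 (275-289) FRET peptide with QXL520 quencher, after 120 min at 32 °C. The enzyme, about 20 nM, was in HEPES pH 8.0 buffer with NaCl, CaCl2, ZnCl2 and Brij.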

[2] = molecular target: T2, ADAMTS4 (Homo sapiens, UniProt O75173); experiment: Selectivity assay for ADAMTS-7 modulators (FRET), ADAMTS4; format: biochemical; settings: 50 nM enzyme (R&D 4307-AD), 1 μM Dabcyl/Edans FRET substrate, 120 min at 32° C.
T2 construct: purchased R&D 4307-AD
T2 sequence (O75173 213-685 limits assumed): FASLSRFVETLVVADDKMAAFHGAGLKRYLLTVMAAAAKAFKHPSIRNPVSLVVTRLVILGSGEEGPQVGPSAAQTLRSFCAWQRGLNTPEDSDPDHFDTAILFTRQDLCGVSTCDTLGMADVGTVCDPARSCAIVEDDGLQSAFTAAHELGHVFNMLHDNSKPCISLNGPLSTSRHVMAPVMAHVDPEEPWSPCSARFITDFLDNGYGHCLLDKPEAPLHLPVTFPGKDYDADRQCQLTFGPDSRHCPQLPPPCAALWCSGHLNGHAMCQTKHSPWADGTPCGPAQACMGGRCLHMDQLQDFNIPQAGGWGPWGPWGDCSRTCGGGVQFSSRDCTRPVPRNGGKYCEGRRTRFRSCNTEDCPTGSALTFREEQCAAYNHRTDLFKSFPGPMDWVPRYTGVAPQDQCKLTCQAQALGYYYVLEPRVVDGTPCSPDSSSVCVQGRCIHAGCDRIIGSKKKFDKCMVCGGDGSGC
Procedure, shortened: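 Enzyme in 50 mM Tris pH 7.5, 150 mM NaCl, 10 mM CaCl2, 0.05% Brij, preincubated with compound in DMSO; reaction started with FRET substrate. Fluorescence increase read after 120 min at 32° C; IC50 from percent inhibition versus compound concentration.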

IC50 [1] [nM] | IC50 [2] [nM] | SMILES
38 | 2000 | CC1(C)CC1C1(CNC(=O)c2cnn(-c3ccccc3)n2)NC(=O)NC1=O (racemic) [Example 150, ent-N-({4-[rac-2,2-dimethylcyclopropyl]-2,5-dioxoimidazolidin-4-yl}methyl)-2-phenyl-2H-1,2,3-triazole-4-carboxamide]
560 | 5000 | CC1(CNC(=O)c2cnn(-c3ccc(F)cc3)n2)NC(=O)NC1=O (racemic) [Example 152, rac-2-(4-fluorophenyl)-N-[(4-methyl-2,5-dioxoimidazolidin-4-yl)methyl]-2H-1,2,3-triazole-4-carboxamide]
190 | 7900 | O=C1NC(=O)C(CNC(=O)c2cnn(-c3ccc(F)cc3)n2)(C2(F)CC2)N1 (racemic) [Example 154, rac-N-{[4-(1-fluorocyclopropyl)-2,5-dioxoimidazolidin-4-yl]methyl}-2-(4-fluorophenyl)-2H-1,2,3-triazole-4-carboxamide]
220 | > 50000 | O=C1NC(=O)C(CNC(=O)c2cnn(-c3ccc(F)cc3)n2)(C2CC(F)(F)C2)N1 (racemic) [Example 155, rac-N-{[4-(3,3-difluorocyclobutyl)-2,5-dioxoimidazolidin-4-yl]methyl}-2-(4-fluorophenyl)-2H-1,2,3-triazole-4-carboxamide]
59 | 15000 | O=C1NC(=O)C(CNC(=O)c2cnn(-c3ccc(F)cc3)n2)(c2ncccc2C(F)(F)F)N1 (racemic) [Example 156, rac-N-({2,5-dioxo-4-[3-(trifluoromethyl)pyridin-2-yl]imidazolidin-4-yl}methyl)-2-(4-fluorophenyl)-2H-1,2,3-triazole-4-carboxamide]
100 | 2800 | Cc1nc(C2(CNC(=O)c3cnn(-c4ccc(F)cc4)n3)NC(=O)NC2=O)c(C)s1 (racemic) [Example 158, rac-N-{[4-(2,5-dimethyl-1,3-thiazol-4-yl)-2,5-dioxoimidazolidin-4-yl]methyl}-2-(4-fluorophenyl)-2H-1,2,3-triazole-4-carboxamide]
74 | 3700 | O=C1NC(=O)C(CNC(=O)c2cnn(-c3ccc(F)cc3)n2)(C2(Cl)CC2)N1 (racemic) [Example 159, rac-N-{[4-(1-chlorocyclopropyl)-2,5-dioxoimidazolidin-4-yl]methyl}-2-(4-fluorophenyl)-2H-1,2,3-triazole-4-carboxamide]
200 | 13000 | CCC1(CNC(=O)c2cnn(-c3ccc(F)cc3)n2)NC(=O)NC1=O (racemic) [Example 162, rac-N-[(4-ethyl-2,5-dioxoimidazolidin-4-yl)methyl]-2-(4-fluorophenyl)-2H-1,2,3-triazole-4-carboxamide]
10 | 1900 | O=C1NC(=O)C(CNC(=O)c2cnn(-c3ccc(F)cc3)n2)(c2ccccn2)N1 (single isomer, unassigned) [Example 97, ent-N-{[2,5-dioxo-4-(pyridin-2-yl)imidazolidin-4-yl]methyl}-2-(4-fluorophenyl)-2H-1,2,3-triazole-4-carboxamide]
10 | 2200 | CCC(C)C1(CNC(=O)c2cnn(-c3ccc(F)cc3)n2)NC(=O)NC1=O (single isomer, unassigned) [Example 104, ent-N-[(4-sec-butyl-2,5-dioxoimidazolidin-4-yl)methyl]-2-(4-fluorophenyl)-2H-1,2,3-triazole-4-carboxamide]
37 | 1000 | CCC(C)C1(CNC(=O)c2cnn(-c3ccc(F)cc3)n2)NC(=O)NC1=O (single isomer, unassigned) [Example 137, ent-N-[(4-sec-butyl-2,5-dioxoimidazolidin-4-yl)methyl]-2-(4-fluorophenyl)-2H-1,2,3-triazole-4-carboxamide]
150 | 4000 | O=C1NC(=O)C(CNC(=O)c2cnn(-c3ccccc3)n2)(C2CCCOC2)N1 (single isomer, unassigned; dia1) [Example 84, dia1-N-{[4-(-oxan-3-yl)-2,5-dioxoimidazolidin-4-yl]methyl}-2-phenyl-2H-1,2,3-triazole-4-carboxamide]
250 | 6500 | O=C1NC(=O)C(CNC(=O)c2cnn(-c3ccccc3)n2)(C2CCCOC2)N1 (single isomer, unassigned; dia2) [Example 85, dia2-N-{[4-(-oxan-3-yl)-2,5-dioxoimidazolidin-4-yl]methyl}-2-phenyl-2H-1,2,3-triazole-4-carboxamide]
37 | 1500 | O=C1NC(=O)C(CNC(=O)c2cnn(-c3ccc(F)cc3)n2)(C2CCOCC2)N1 (single isomer, unassigned; ent-2) [Example 81]
98 | 13000 | CC(C)C1(CNC(=O)c2cnn(-c3ccc(F)cc3F)n2)NC(=O)NC1=O (single isomer, unassigned; ent-2) [Example 88, ent-2-(2,4-difluorophenyl)-N-[(4-isopropyl-2,5-dioxoimidazolidin-4-yl)methyl]-2H-1,2,3-triazole-4-carboxamide]
18 | 1800 | O=C1NC(=O)C(CNC(=O)c2cnn(-c3ccc(F)c(Cl)c3)n2)(C2CCC2)N1 (single isomer, unassigned; ent-2) [Example 91, ent-2-(3-chloro-4-fluorophenyl)-N-[(4-cyclobutyl-2,5-dioxoimidazolidin-4-yl)methyl]-2H-1,2,3-triazole-4-carboxamide]
78 | 4000 | N#Cc1cccc(-n2ncc(C(=O)NCC3(C4CCC4)NC(=O)NC3=O)n2)c1 (single isomer, unassigned; ent-2) [Example 92, ent-2-(3-cyanophenyl)-N-[(4-cyclobutyl-2,5-dioxoimidazolidin-4-yl)methyl]-2H-1,2,3-triazole-4-carboxamide]
10 | 980 | O=C1NC(=O)C(CNC(=O)c2cnn(-c3ccc(Cl)cc3)n2)(C2CCC2)N1 (single isomer, unassigned; ent-2) [Example 95, ent-2-(4-chlorophenyl)-N-[(4-cyclobutyl-2,5-dioxoimidazolidin-4-yl)methyl]-2H-1,2,3-triazole-4-carboxamide]
48 | 2200 | O=C1NC(=O)C(CNC(=O)c2cnn(-c3cccc(Cl)c3)n2)(C2CCC2)N1 (single isomer, unassigned; ent-2) [Example 96, ent-2-(3-chlorophenyl)-N-[(4-cyclobutyl-2,5-dioxoimidazolidin-4-yl)methyl]-2H-1,2,3-triazole-4-carboxamide]
2 | 200 | Cc1scnc1C1(CNC(=O)c2cnn(-c3ccc(F)cc3)n2)NC(=O)NC1=O (single isomer, unassigned; ent-2) [Example 103]
7 | 310 | O=C1NC(=O)C(CNC(=O)c2cnn(-c3ccc(F)c(F)c3)n2)(c2nccs2)N1 (single isomer, unassigned; ent-2) [Example 107, ent-2-(3,4-difluorophenyl)-N-{[2,5-dioxo-4-(1,3-thiazol-2-yl)imidazolidin-4-yl]methyl}-2H-1,2,3-triazole-4-carboxamide]
5 | 400 | O=C1NC(=O)C(CNC(=O)c2cnn(-c3ccc(Cl)c(F)c3)n2)(c2nccs2)N1 (single isomer, unassigned; ent-2) [Example 110, ent-2-(4-chloro-3-fluorophenyl)-N-{[2,5-dioxo-4-(1,3-thiazol-2-yl)imidazolidin-4-yl]methyl}-2H-1,2,3-triazole-4-carboxamide]
14 | 780 | O=C1NC(=O)C(CNC(=O)c2cnn(-c3ccc(F)c(Cl)c3)n2)(c2nccs2)N1 (single isomer, unassigned; ent-2) [Example 112, ent-2-(3-chloro-4-fluorophenyl)-N-{[2,5-dioxo-4-(1,3-thiazol-2-yl)imidazolidin-4-yl]methyl}-2H-1,2,3-triazole-4-carboxamide]
